{
  "source": "patent US6096707A",
  "about": "“Integrin binding peptide and use thereof” (BioTie Therapies Ltd., priority 1997, dated 2000)",
  "target": "T1, human recombinant integrin α2I domain (rα2I) (Homo sapiens, UniProt P17301)",
  "T1 construct": "GST (glutathione S-transferase, pGEX2T) (N, cleaved yes); made in house; host or cells: E. coli BL21 (pJKα2I, pGEX2T backbone)",
  "T1 sequence (P17301 153-368)": "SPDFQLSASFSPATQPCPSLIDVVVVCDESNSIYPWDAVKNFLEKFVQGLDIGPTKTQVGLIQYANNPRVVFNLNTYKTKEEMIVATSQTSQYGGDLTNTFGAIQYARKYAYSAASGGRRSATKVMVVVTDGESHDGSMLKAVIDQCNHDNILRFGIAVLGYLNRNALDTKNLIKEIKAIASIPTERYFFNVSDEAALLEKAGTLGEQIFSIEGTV",
  "type": "binding",
  "description": "A 96-well immunoplate (Maxisorp, Nunc) was coated by exposing the surface of its well to 0.1 ml of PBS containing 5 μg/cm^2 of the plate surface, type I collagen (bovine dermal, Cellon), type IV collagen (Sigma), laminin-1 (purified from basement membranes of the Engelbreth-Holm-Swarm mouse tumor, Collaborative Research), fibronectin (human plasma fibronectin, Boehringer Mannheim) or 3.3 μg/ml echovirus-1 or echovirus-7 for 12 h at +4° C. Alternatively peptides and B. jararaca venom (Sigma) were coated at various concentrations on 96-well amine binding plates (Costar) according to the manufacturer's instructions.\nResidual protein absorption sites on all wells were blocked with 0.1% heat inactivated bovine serum albumin in PBS for 1 h at +37° C. Echoviruses 1 (Farouk strain) and 7 (Wallace) were obtained from the ATCC. The purified viruses were diluted in PBS containing 0.5 mM MgCl2 and stored at -70° C. until used. Europium labeled rα2I was added at a concentration of 500 ng/ml in PBS, 2 mM MgCl2, 1 mg/ml BSA to the coated wells and incubated for 3 h at +37° C. Wells were then washed three times with PBS, 2mM MgCl2. 0.1 ml Delfia enhancement solution (Wallac) was added to each well and europium signal was measured with fluorometry (Model 1232 Delfia, Wallac). […]",
  "note": "Positions of bridges follow the written chain, without caps; N, C: chain ends. Residues, ends and D or L forms follow the SMILES beside them.",
  "data": [
    {"smiles": "C[C@@H]1NC(=O)[C@H](CC(N)=O)NC(=O)[C@H](CC(=O)O)NC(=O)[C@H](Cc2c[nH]cn2)NC(=O)[C@H](CCCCN)NC(=O)[C@H](CCCCN)NC(=O)[C@H](CCCNC(=N)N)NC(=O)[C@H]([C@@H](C)O)NC(=O)[C@@H](N)CSSC[C@@H](C(=O)O)NC(=O)[C@H](CCC(N)=O)NC1=O", "note": "[229ox, CTRKKHDNAQC] (H-CTRKKHDNAQC-OH; disulfide 1-11)", "values": [
      {"measurement": "inhibition of rα2I binding to B. jararaca venom by peptide", "result": "about 50%"}
    ]}
  ]
}
